Source: patent US20170312308A1, “XENON AND/OR ARGON TREATMENT AS AN ADJUNCT TO PSY[…] PSYCHIATRIC DISORDERS” (THE MCLEAN HOSPITAL CORPORATION, priority 2012, published 2017)
“Also recorded” adds a separate entry of the source.

Experiments:
Format in all cases: in vivo, rat
Male Sprague-Dawley rats [1] = test: Conditioned freezing paradigm: consolidation of fear memory (xenon exposure immediately after fear conditioning); conditions: for conditioned freezing to context (consolidation of fear memory) / conditioned freezing to tone (CS) (consolidation of fear memory): xenon 25% for 24 h immediately after tone+shock training, vs Air-treated, tested after exposure and retested 1 and 2 weeks later; for conditioned freezing to context (consolidation of fear memory): FIG. 1B; for conditioned freezing to tone (CS) (consolidation of fear memory): FIG. 1C
Method: (§1) An illustration of the methodology used for training and testing rats in the conditioned freezing paradigm is shown in FIG. 1 (see also Johansen et al., Cell, 2011, 147; 509-524). Male Sprague-Dawley rats (350-375 g) were housed for at least one week before the experiment. On the training day, rats were placed into a conditioning chamber, housed within a sound-attenuating cabinet (Med Associates, Georgia, Vt.), for 2 min before the onset of the conditioned stimulus (CS). The CS was a tone (5 kHz, 75 dB) that lasted for 30 s. The last 2 s of the CS were paired with a continuous foot shock (0.6 mA, the unconditioned stimulus (US)). Rats received two presentations of the CS+US (tone plus shock). After additional 30 s in the chamber, rats were randomly divided into two groups (n=4/group) and immediately placed in either the Air or xenon-exposure chambers. After 24-h of air or xenon (25%) exposure, rats were tested for retention of conditioned fear using conditioned freezing as a measure of fear. For the test, rats were placed into a different context and, 2 min later, were exposed to the tone CS (5 kHz, 75 dB) for 60 s. Freezing scores were calculated as the percentage of the total duration that the rat remained immobile (frozen) other than breathing during the first 2 min (freezing to context) and during presentation of the CS (freezing to tone). Rats were then returned to the main animal holding room (i.e. no more air or xenon exposure took place) and were retested 1 and 2 weeks later (re-test and 3rd test) as described above.

Male Sprague-Dawley rats [2] = test: Conditioned freezing paradigm: reconsolidation of fear memory (xenon exposure after reactivation test); conditions: xenon 25%, no react group (no reactivation test); for conditioned freezing to context, animals without reactivation test: FIG. 1F; for conditioned freezing to tone, animals without reactivation test: FIG. 1G
Male Sprague-Dawley rats [3] = test: as above; conditions: for conditioned freezing to context (reconsolidation of fear memory): FIG. 1D; for conditioned freezing to tone (reconsolidation of fear memory): FIG. 1E
Method: as §1
Newly formed memories, including traumatic memories, are stabilized over several hours after the acquisition for long-term storage. This process, termed consolidation, critically depends on the permanence of acquisition-induced synaptic modifications in the corresponding neural circuits and is NMDA-receptor dependent. Once retrieved, consolidated memory enters a labile state again and should be reconsolidated, or it will be diminished or lost (see Debiec, 2012). To explore the effects of xenon exposure on post-retrieval memory reconsolidation, the inventors trained and tested male Sprague-Dawley rats in the conditioned freezing paradigm described in the methods section above.
Immediately after the fear memory test (24 h post-conditioning), where animals are subjected to context and CS (tone) exposure previously paired with shock (on the training day), rats were placed in either the Air or xenon (25%) exposure chambers for 1 hr. Rats were then tested for conditioned freezing 48 hours later. […]

[4] = xenon 25% for 1 hr after reactivation test 24 h post-conditioning, re-tested 48 hours later (PR-LTM1)
[5] = xenon 25% for 1 hr after reactivation test 24 h post-conditioning, re-tested 48 hours later (PR-LTM1), listed as Xe
[6] = xenon 25% for one hour after reactivation, tested after another 48 hours (PR-LTM2)

For `[Xe]` [xenon], the “fear memory / conditioned freezing, context and cue not separated” value (Male Sprague-Dawley rats [1]; inhaled xenon (25%), male Sprague-Dawley rats, vs non-treated animals, FIG. 1) was “significantly reduces the consolidation of fear memories; also recorded: significantly reduced conditioned freezing”, the “conditioned freezing to context (consolidation of fear memory)” value (Male Sprague-Dawley rats [1]) was “reduced levels of conditioned freezing” and the “conditioned freezing to context (consolidation of fear memory)” value (Male Sprague-Dawley rats [1]; listed as Xe) was “significant reduction in freezing”. The “conditioned freezing to tone (CS) (consolidation of fear memory)” value (Male Sprague-Dawley rats [1]) was “reduced levels of conditioned freezing”, the “conditioned freezing to tone (CS) (consolidation of fear memory)” value (Male Sprague-Dawley rats [1]; listed as Xe) was “also reduced” and the “conditioned freezing to context, animals without reactivation test” value (Male Sprague-Dawley rats [2]) was “does not block reconsolidation of conditioned fear”. For the same compound, the “conditioned freezing to context, animals without reactivation test” value (Male Sprague-Dawley rats [2]; listed as Xe) was “no reduction in freezing”, the “conditioned freezing to tone, animals without reactivation test” value (Male Sprague-Dawley rats [2]) was “does not block reconsolidation of conditioned fear” and the “conditioned freezing to tone, animals without reactivation test” value (Male Sprague-Dawley rats [2]; listed as Xe) was “no reduction in freezing”. The “conditioned freezing to context (reconsolidation of fear memory)” value (Male Sprague-Dawley rats [3]; [4]) was “reduces the expression of conditioned freezing; also recorded: blocks reconsolidation of conditioned fear”, the “conditioned freezing to context (reconsolidation of fear memory)” value (Male Sprague-Dawley rats [3]; [5]) was “significantly less freezing” and the “conditioned freezing to tone (reconsolidation of fear memory)” value (Male Sprague-Dawley rats [3]; [4]) was “reduces the expression of conditioned freezing; also recorded: blocks reconsolidation of conditioned fear”. For the same compound, the “conditioned freezing to tone (reconsolidation of fear memory)” value (Male Sprague-Dawley rats [3]; [5]) was “significantly less freezing”, the “conditioned freezing to context (reconsolidation of fear memory)” value (Male Sprague-Dawley rats [3]; [6]) was “significantly less freezing” and the “conditioned freezing to tone (reconsolidation of fear memory)” value (Male Sprague-Dawley rats [3]; [6]) was “significantly less freezing”.
